Data taken from the supplement of paper PMC11208160.

Assay: recombinant barcode read abundance after kanamycin selection (control-corrected) (log10(CPM+1)); higher = more efficient recombination; sequences stand for … in AGTGCAGAGAAAATCGGCCAGTTTTCTCTGCCTGCAGTCCGCATGCCGT…AGATTTATGCAGCGGACTGCCTTTCTCCCAAAGTGATAAACCGGACAGTATCATGGACCGGTTTTCCCGGTAATCCGTATTTGCAAGGTTGGTTTCACT; site = the 11-nt target
How it was run: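 This pooled E. coli screen matched targets with IS621 bridge RNA target-binding loops. Plating was done in duplicate on chloramphenicol/ampicillin LB agar as a control and on chloramphenicol/ampicillin/kanamycin plus 0.1 mM IPTG. Recombination efficiency reflects barcode counts at recombinant junctions as counts per million, averaged and control-corrected. The figures are log10(CPM+1).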
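Note: IS621 recombinase and bridge RNA in Escherichia coli cells.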

In order of falling “recombinant barcode read abundance (log10)” value:
1. GATGGAGCTTGGGTTCTAACCTGTTGCGG (site GATGGAGCTCC)  2.57
2. GATGCACCTTGGGTTCTAACCTGTTGCGG (site GATGCACCTCC)  2.36
3. GCACGGACTTGGGTTCTAACCTGTTGCAG (site GCACGGACTCT)  2.35
4. GATGGTCCTTGGGTTCTAACCTGTTGCGG (site GATGGTCCTCC)  2.34
5. GATATAGCTTGGGTTCTAACCTGTTGCGG (site GATATAGCTCC)  2.31
6. GATGCTACTTGGGTTCTAACCTGTTGCGG (site GATGCTACTCC)  2.14
7. GCAGGGACTTGGGTTCTAACCTGTTGCAG (site GCAGGGACTCT)  1.72
8. GATCGGACTTGGGTTCTAACCTGTTGCGG (site GATCGGACTCC)  1.69
9. GCACGACCTTGGGTTCTAACCTGTTGCCT (site GCACGACCTAG)  1.56
10. GCAATCCCTTGGGTTCTAACCTGTTGCTA (site GCAATCCCTTA)  1.48
11. GCAGGGTCTTGGGTTCTAACCTGTTGCCT (site GCAGGGTCTAG)  1.45
12. GATGGGTCTTGGGTTCTAACCTGTTGCCT (site GATGGGTCTAG)  1.37
13. GATCCCACTTGGGTTCTAACCTGTTGCCT (site GATCCCACTAG)  1.34
14. GCACATACTTGGGTTCTAACCTGTTGCCT (site GCACATACTAG)  1.2
15. GCACTAACTTGGGTTCTAACCTGTTGCCT (site GCACTAACTAG)  1.14
16. GCACCAACTTGGGTTCTAACCTGTTGCCT (site GCACCAACTAG)  1.12
17. GATGCTACTTGGGTTCTAACCTGTTGCAG (site GATGCTACTCT)  1.04
18. GCACAAGCTTGGGTTCTAACCTGTTGCCT (site GCACAAGCTAG)  0.978
19. GCAGGGACTTGGGTTCTAACCTGTTGCAG (site GCAAGGACTCT)  0.883
20. GCACGACCTTGGGTTCTAACCTGTTGCCT (site GCACAACCTAG)  0.808
21. GATCGATCTTGGGTTCTAACCTGTTGCCT (site GATCGATCTAG)  0.663
22. GCATCGTCTTGGGTTCTAACCTGTTGCCT (site GCATCGTCTAG)  0.649
23. GATCGGACTTGGGTTCTAACCTGTTGCGG (site GTTCGGACTCC)  0.596
24. GCAGGGACTTGGGTTCTAACCTGTTGCAG (site GCACGGACTCT)  0.552
25. GCAATTGCTTGGGTTCTAACCTGTTGCCT (site GCAATTGCTAG)  0.458
26. GATCGATCTTGGGTTCTAACCTGTTGCTT (site GATCGATCTAA)  0.349
27. GATAGTCCTTGGGTTCTAACCTGTTGCCT (site GATAGTCCTAG)  0.322
28. GATGGTCCTTGGGTTCTAACCTGTTGCGG (site GACGGTCCTCC)  0.306
29. GCACGGACTTGGGTTCTAACCTGTTGCAG (site GCATGGACTCT)  0.3
30. GATTGTCCTTGGGTTCTAACCTGTTGCTT (site GATTGTCCTAA)  0.294
31. GATCGATCTTGGGTTCTAACCTGTTGCTT (site GATCGATCTAG)  0.248
32. GCACCAACTTGGGTTCTAACCTGTTGCCT (site CCACCGACTAG)  0.242
33. GATTGTCCTTGGGTTCTAACCTGTTGCTT (site GGTTGTCCTTA)  0.23
34. GCAGGGACTTGGGTTCTAACCTGTTGCAG (site GCATGGACTCT)  0.224
35. GCACGGACTTGGGTTCTAACCTGTTGCAG (site GCAAGGACTCT)  0.223
36. GCACTAACTTGGGTTCTAACCTGTTGCCT (site GCACTAGCTAC)  0.216
37. GATGGAGCTTGGGTTCTAACCTGTTGCGG (site GATCGAGCTTC)  0.198
38. GATCCCACTTGGGTTCTAACCTGTTGCCT (site GATGCCACTAG)  0.192
39. GCAATTGCTTGGGTTCTAACCTGTTGCCT (site AAGTCGTCTTA)  0.19
40. GATACGGCTTGGGTTCTAACCTGTTGCCT (site GATACGACTAG)  0.169
41. GCACGGACTTGGGTTCTAACCTGTTGCAG (site GCAGGGACTCT)  0.164
42. GATAGTCCTTGGGTTCTAACCTGTTGCCT (site GATAGTGCTAG)  0.161
43. GATAGTCCTTGGGTTCTAACCTGTTGCCT (site GATAGTTCTAG)  0.159
44. GATCGATCTTGGGTTCTAACCTGTTGCCT (site GATCGATCTAC)  0.159
45. GCAGGGTCTTGGGTTCTAACCTGTTGCCT (site GCAAGATCTAG)  0.158
46. GATACGGCTTGGGTTCTAACCTGTTGCCT (site GATACGGCTAG)  0.149
47. GATGCTACTTGGGTTCTAACCTGTTGCGG (site GAAGCTACTAC)  0.128
48. GAGTTTGCTTGGGTTCTAACCTGTTGCCT (site GGGTTTGCTAG)  0.124
49. GATAGTCCTTGGGTTCTAACCTGTTGCCT (site GATAGTACTAG)  0.122
50. GATAGGCCTTGGGTTCTAACCTGTTGCCT (site GATAGGCCTAG)  0.101
51. GCATCGTCTTGGGTTCTAACCTGTTGCCT (site GCTTCGTCTAG)  0.0989
52. GATCGATCTTGGGTTCTAACCTGTTGCTT (site GATCGATCTAT)  0.0953
53. GATTCTCCTTGGGTTCTAACCTGTTGCCT (site GATTCTCCTAA)  0.0949
54. GCACAAGCTTGGGTTCTAACCTGTTGCCT (site GCTCTAGCTAG)  0.091
55. GATGCTACTTGGGTTCTAACCTGTTGCAG (site GATACTACTCT)  0.0793
56. GATTCTCCTTGGGTTCTAACCTGTTGCCT (site GATTCTCCTAG)  0.0773
57. GCAATCCCTTGGGTTCTAACCTGTTGCTA (site AGAATCCCTTA)  0.0668
58. GATGCACCTTGGGTTCTAACCTGTTGCGG (site TGATTGACTAA)  0.0617
59. GATCGATCTTGGGTTCTAACCTGTTGCCT (site GATCGATCTAT)  0.0541
60. GATTCTCCTTGGGTTCTAACCTGTTGCCT (site GATTCTCCTAC)  0.0529
61. GCACGACCTTGGGTTCTAACCTGTTGCCT (site GCACCACCTAG)  0.0505
62. GATTATACTTGGGTTCTAACCTGTTGCTT (site TGCGGAGCTCG)  0.046
63. GATCGATCTTGGGTTCTAACCTGTTGCCT (site GATCGATCTAA)  0.0447
64. GCATCGTCTTGGGTTCTAACCTGTTGCCT (site GCCTCGTCTAG)  0.0437
65. GCATCGTCTTGGGTTCTAACCTGTTGCCT (site GCGTCGTCTAG)  0.0424
66. GAGTTTGCTTGGGTTCTAACCTGTTGCCT (site GTGTTTGCTAG)  0.0382
67. GATATAGCTTGGGTTCTAACCTGTTGCGG (site GTGATAGCTCC)  0.0376
68. GAGTTTGCTTGGGTTCTAACCTGTTGCCT (site GCGTTTGCTAG)  0.0311
69. GATAGGCCTTGGGTTCTAACCTGTTGCCT (site GTTAGGCCTAG)  0.031
70. GATTATACTTGGGTTCTAACCTGTTGCTT (site GATTATACTAA)  0.0285
71. GATGGGTCTTGGGTTCTAACCTGTTGCCT (site GCTGGGTCTAG)  0.015
72. GATACGGCTTGGGTTCTAACCTGTTGCCT (site GATACGTCTAG)  0.0137
73. GATACGGCTTGGGTTCTAACCTGTTGCCT (site GATACGCCTAG)  0
74. GATCGATCTTGGGTTCTAACCTGTTGCTT (site GATCGATCTAC)  0
75. GATTCTCCTTGGGTTCTAACCTGTTGCCT (site GATTCTCCTAT)  0
76. GCACATACTTGGGTTCTAACCTGTTGCCT (site GCACATTCTAG)  0
77. GCACGACCTTGGGTTCTAACCTGTTGCCT (site GCACTACCTAG)  0
